For orientation: Ki means a dissociation constant, usually derived from enzyme kinetics or from competition with a known ligand. A word on the EC50: it is the concentration that produces a half-maximal response.

The results in this text go back to US6121252A, “Phosphinic acid derivatives” (priority 1998, dated 2000).

Peptide text beside a SMILES is read from it.

The target of test [1] is T1, NAALADase (Rattus norvegicus, UniProt P70627).
T1 construct: synaptosomal protein; from tissue; host or cells: synaptosomes (brain tissue)
T1 sequence (P70627 whole entry): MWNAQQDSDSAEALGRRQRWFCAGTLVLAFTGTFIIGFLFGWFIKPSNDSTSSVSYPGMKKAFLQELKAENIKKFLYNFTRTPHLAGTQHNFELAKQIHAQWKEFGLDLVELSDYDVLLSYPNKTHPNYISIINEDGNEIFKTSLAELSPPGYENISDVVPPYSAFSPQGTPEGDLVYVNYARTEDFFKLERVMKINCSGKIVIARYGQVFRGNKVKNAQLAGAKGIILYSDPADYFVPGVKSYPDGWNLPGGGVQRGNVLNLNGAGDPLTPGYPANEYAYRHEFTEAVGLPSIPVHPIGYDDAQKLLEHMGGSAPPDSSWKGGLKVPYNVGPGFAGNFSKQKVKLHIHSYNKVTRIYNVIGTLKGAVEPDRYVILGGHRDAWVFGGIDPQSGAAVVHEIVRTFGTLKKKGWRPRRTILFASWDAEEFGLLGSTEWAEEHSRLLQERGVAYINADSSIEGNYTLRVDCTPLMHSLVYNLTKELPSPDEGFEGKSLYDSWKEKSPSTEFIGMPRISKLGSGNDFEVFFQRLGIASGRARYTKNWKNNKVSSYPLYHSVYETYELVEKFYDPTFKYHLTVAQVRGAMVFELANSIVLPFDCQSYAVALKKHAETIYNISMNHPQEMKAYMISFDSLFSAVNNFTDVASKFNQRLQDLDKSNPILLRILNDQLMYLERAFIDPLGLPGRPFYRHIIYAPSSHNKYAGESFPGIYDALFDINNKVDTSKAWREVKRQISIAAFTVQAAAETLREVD
Briefly: In vitro inhibition of NAALADase activity. The test is classed as biochemical. The text has this:
"Inhibition", in the context of enzymes, refers to reversible enzyme inhibition such as competitive, uncompetitive and non-competitive inhibition. Competitive, uncompetitive and non-competitive inhibition can be distinguished by the effects of an inhibitor on the reaction kinetics of an enzyme. […] The affinity between the inhibitor and the enzyme may be measured by the inhibitor constant, Ki, which is defined as: [formula] wherein [E] is the concentration of the enzyme, [I] is the concentration of the inhibitor, and [EI] is the concentration of the enzyme-inhibitor complex formed by the reaction of the enzyme with the inhibitor. Unless otherwise specified, Ki as used herein refers to the affinity between the inventive compounds and NAALADase.
Various compounds of formula I were tested for in vitro inhibition of NAALADase activity.
Substrate and product were resolved by anion-exchange liquid chromatography. […] Quisqualate (100 μM) was included in parallel assay tubes to confirm the specificity of the measurements.

The subject of test [2] is cortical cell cultures. Briefly: In vitro ischemia assay (KCN/2-DG) in cortical cell cultures. The test is classed as cell-based, rat. The note with it: Rattus norvegicus, 1 h, read-out: EC50 (50% reduction in glutamate toxicity following an ischemic insult); KCN/2-DG insult, compound during insult and one hour thereafter.
The subject of test [3] is LNCaP tumors. Briefly: In vivo LNCaP tumor model, subcutaneous Compounds 16, 17, 18. The following applies: for tumor response (in words): 1 and 3 mg/kg s.c. Further details: species or system ncr nude male mice. The procedure:
Ncr nude male mice, age 5 to 6 weeks, were injected in the right flank with 5×10^6 LNCaP cells in Matrigel™ (0.1 ml total injection volume). Two weeks following cell injection, daily s.c. injections of Compound 16, Compound 17, and Compound 18 were initiated at the following doses: 1 and 3 mg/kg. Controls received 50 mM HEPES s.c. daily. Once tumors were palpable they were measured twice a week.
Response to treatment was monitored in two ways. First, mean tumor volume for each group was presented as tumor:control ratio (% T/C) and these values were compared at one point in time. Second, tumor volume versus time was monitored.

For test [4], the system named is spinal cord organotypic cultures. The experiment in a line: ALS model: ChAT activity of spinal cord organotypic cultures with THA. The class given is cell-based, rat. The following applies: Rattus norvegicus, THA alone, 100 μM. How it is done: Organotypic cultures were prepared from lumbar spinal cord of 8 day old rats, as described by Rothstein et al., J. Neurochem., Vol. 65, No. 2 (1995), and Rothstein et al., Proc. Natl. Acad. Sci. USA, Vol. 90, pp. 6591-6595 (July 1993). In brief, lumbar spinal cords were removed and sliced into […]-thick-dorsal-ventral sections, and five slices were placed on Millipore CM semipermeable 30-mm-diameter membrane inserts. The inserts were placed on 1 ml of culture medium in 35-mm-diameter culture wells. Culture medium consisted of 50% minimal essential medium and phosphate-free HEPES (25 mM), 25% heat-inactivated horse serum, and 25 Hanks' balanced salt solution (GIBCO) supplemented with D-glucose (25.6 mg/ml) and glutamine (2 mM), at a final pH of 7.2. Antibiotic and antifungal agents were not used. Cultures were incubated at 37° C. in 5% CO2 containing humidified environment (Forma Scientific). Culture medium, along with any added pharmacological agents, was changed twice weekly.
Drugs were incubated for an additional 13 to 20 days with the 100 μM THA. At the end of this period, cultures were collected assayed for ChAT activity as described below.
To determine choline acetyltransferase (CHAT) activity, the spinal cord tissues in each dish (five slices) were pooled and frozen (-75° C.) until assay. CHAT activity was measured radiometrically by described methods using [^3 H]acetyl-CoA (Amersham; Fonnum, 1975). Protein content of tissue homogenate was determined by a Coomassi Protein Assay kit (Pierce, Rockford, Ill.).

Test [5] concerns dopaminergic neurons. Briefly: Parkinson's Disease model: MPTP lesioned mice. The test is classed as in vivo, CD1 mice. How it is done: To examine the effect of NAALADase inhibitors on Parkinson's Disease in vivo, MPTP lesioned mice were treated with 2-(phosphonomethyl)pentanedioicacid or a vehicle.
MPTP lesioning of dopaminergic neurons in mice was used as an animal model of Parkinson's Disease, as described by Steiner, Proc. Natl. Acad. Sci., Vol. 94, pp. 2019-2024 (March 1997). In brief, four week old male CD1 white mice were dosed IP with 30 mg/kg of MPTP for 5 days. […] At 18 days following MPTP treatment, the mice were sacrificed and their brains were removed and sectioned. Immunostaining was performed on saggital and coronal brain sections using anti-tyrosine hydroxylase (TH) antibodies to quantitate survival and recovery of dopaminergic neurons.

For test [6], the system named is cortical cell cultures. The experiment in a line: In vitro toxicity of NAAG in cortical cell cultures. The note with it: Rattus norvegicus, 20 min. The class given is cell-based. The procedure:
Experiments are performed after 21 days in cultures.
At the end of exposure, the cells are washed once with HEPES buffered saline solution and then replaced with serum free modified Earle's basal medium. The cultures are then returned to the CO2 incubator for 24 hour recovery.
This control measurement is subtracted from each experimental point.

With `O=C(O)CCC(CP(=O)(O)C(NC(=O)O)c1ccccc1)C(=O)O` (stereo not shown), in test [1], affinity was put at a Ki of 2000 nM. This lies in the single-digit micromolar range.
Same read-out and setting: in the case of `O=C(O)CCC(CP(=O)(O)CN1C(=O)c2ccccc2C1=O)C(=O)O` (stereo not shown) it was 34.5 nM.
Same read-out and setting: in the case of `O=C(O)CCC(CP(=O)(O)CNS(=O)(=O)c1ccccc1)C(=O)O` (stereo not shown) it was 90 nM.
As to `O=C(O)CCC(CP(=O)(O)C(NCc1ccccc1)c1ccccc1)C(=O)O` (stereo not shown), in test [2], the EC50 came out at 1 nM.
On the same count and under the same terms, in the case of `O=C(O)CCC(CP(=O)(O)CNCc1ccccc1)C(=O)O` (stereo not shown) it was 0.9 nM.
With “2-[[[hydroxy(pyridyl)methyl]hydroxyphosphinyl]methyl]pentanedioic acid [Compound 18]”, the “tumor size, % of control tumors” value in test [3] (1 mg/kg s.c.) was 54 % of controls; in test [3] (3 mg/kg s.c.) it was 58 % of controls. The “tumor response (in words)” value in test [3] was “responded better”.
With `N[C@H](C(=O)O)[C@H](O)C(=O)O` (relative stereo) [THA, threohydroxyaspartate], in test [4], the activity at 100 µM was determined as 36 ± 12.1%.
Consider `O=C(O)CCC(CP(=O)(O)Cc1c(F)c(F)c(F)c(F)c1F)C(=O)O` (stereo not shown) [Compound 16, 2-[[(pentafluorobenzyl)hydroxyphosphinyl]methyl]pentanedioic acid], for which the entries for the “tumor size, % of control tumors” value in test [3] (1 mg/kg s.c.) and in test [3] (3 mg/kg s.c.) were 78 % of controls and 41.4 % of controls, respectively.
For `O=C(O)CCC(CP(=O)(O)Cc1cccc(C(F)(F)F)c1)C(=O)O` (stereo not shown) [Compound 17, 2-[[(3-trifluoromethylbenzyl)hydroxyphosphinyl]methyl]pentanedioic acid], the “tumor size, % of control tumors” value in test [3] (1 mg/kg s.c.) is on record as 74.1 % of controls; in test [3] (3 mg/kg s.c.) it was 82 % of controls. Besides, the “tumor response (in words)” value in test [3] is “responded minimally”.
For the compound `CN1CC=C(c2ccccc2)CC1` [MPTP], the “loss of functional dopaminergic terminals” value in test [5] (MPTP and vehicle vs non-lesioned mice) is on record as “approximately 68%”. For the same compound, the “Percent Striatal TH Innervation Density” value in test [5] (MPTP/vehicle, mean ± SEM) came to 7.82 ± 0.68%.
Consider `CC(=O)N[C@@H](CC(=O)O)C(=O)N[C@@H](CCC(=O)O)C(=O)O` [NAAG, N-acetyl-aspartyl-glutamate] (Ac-Asp-Glu-OH), for which, in test [6], the cytotoxicity at 3 µM was found to be 3.51%, the cytotoxicity at 10 µM is 4.3 ± 3.12%, the cytotoxicity at 30 µM was determined as 11.4 ± 6.17% and the cytotoxicity at 100 µM was found to be 12.7 ± 5.5%. In test [6], the cytotoxicity at 300 µM was 13.5 ± 4%, the cytotoxicity at 1000 µM is 21.5 ± 4.2% and the cytotoxicity at 3000 µM stood at 45.1 ± 4.96%.
The compound `O=C(O)CCC(CP(=O)(O)CNc1ccc(F)cc1)C(=O)O` (stereo not shown) [drawing 29] returned a Ki in test [1] of 9 nM. That is a single-digit nanomolar value.
On the same count and under the same terms, the result for `COc1ccc(NCP(=O)(O)CC(CCC(=O)O)C(=O)O)cc1` (stereo not shown) [drawing 30] reads 2.5 nM; that for `Cc1ccc(NCP(=O)(O)CC(CCC(=O)O)C(=O)O)cc1` (stereo not shown) [drawing 31], 5.2 nM; that for `CC(C)(C)c1ccc(NCP(=O)(O)CC(CCC(=O)O)C(=O)O)cc1` (stereo not shown) [drawing 32], 2 nM.
Take `O=C(O)CCC(CP(=O)(O)CNc1ccc(F)cc1)C(=O)O` (stereo not shown) [drawing 39]: in test [2], the EC50 was determined as 3.1 nM.
The same measure, in the same setting: in the case of `COc1ccc(NCP(=O)(O)CC(CCC(=O)O)C(=O)O)cc1` (stereo not shown) [drawing 40] it was 9.5 nM; in that of `Cc1ccc(NCP(=O)(O)CC(CCC(=O)O)C(=O)O)cc1` (stereo not shown) [drawing 41], 11.4 nM; in that of `CC(C)(C)c1ccc(NCP(=O)(O)CC(CCC(=O)O)C(=O)O)cc1` (stereo not shown) [drawing 42], 34.6 nM.
